How the values were obtained:
[1] = test system: piglets; assay: GILAX as feed additive for pig health after weaning; type: in vivo; conditions: in-feed amoxicillin at 50 mg/kg/day for 21 days (positive control)
[2] = test system: Escherichia Coli; assay: Loss of filaments and of attachment to intestinal wall below the MIC; type: cell-based; conditions: berberine at 5 µg/ml, much lower than MIC
From the text: (§1) This specific property of berberine offers an important aspect as a GI tract cleanser, since it can selectively remove pathogenic bacteria from the gut without affecting the inhabitations of the probiotic bacteria in GI tract, and without exerting excessive drug pressure on the bacteria, which may lead to drug resistance.

[3] = test system: C. albicans ATCC 14053; assay: Antimicrobial activity, Minimum Inhibitory Concentration; type: cell-based, Candida albicans; conditions: for Minimum Inhibitory Concentration: C. albicans ATCC 14053
[4] = test system: Staph. Aureus ATCC 29213; assay: as above; type: cell-based, Staphylococcus aureus
[5] = test system: chickens; assay: Pilot chicken experiment (feed additives, growth and red combs)
[6] = test system: Cl. perfringens ATCC 1124; type: cell-based; conditions: Clostridium perfringens
[7] = test system: hFUT1 mouse model of colitis; assay: Treatment of IBD on mouse model; type: in vivo; conditions: Group 2: berberine chloride 13.5 mg/kg/day (o.s.)
From the text: hFUT1 mouse model of colitis was used. It provides insights into the pathogenesis of Inflammatory Bowel Disease (IBD). […] Immune dysfunction contributing to IBD in humans includes abnormal T cell reactivity and a loss of tolerance to gut bacteria. The compositions of Formula (1) and Formula (2) were given orally to mice to see the effectiveness on the altering the gut flora and lessening the severity of the colitis. The positive results indicated the compositions of Formula and Formula (2) may have a therapeutic role in human IBD.
A total five groups with ten mice per group were used as follows. • 1) Control (without treatment). • 2) Treated with compound of the Formula (1) (berberine chloride), 13.5 mg/kg/day (o.s.). • 3) Treated with compound of the Formula (2) (40% oxidized cellulose), 114 mg/kg/day (o.s.). • 4) Treated with composition of the Formula (1) (berberine chloride) (6.7 mg/kg/day) and the Formula (2) (40% oxidized cellulose) (57 mg/kg/day) (o.s.). • 5) Treated with composition of the Formula (1) (berberine chloride) (13.5 mg/kg/day) and the Formula (2) (114 mg/kg/day) (o.s.).

[8] = test system: interleukine-12 (IL-12); assay: Induction of interleukine-12
[9] = test system: V. cholerae 6239; assay: Antimicrobial activity, Minimum Inhibitory Concentration; type: cell-based, Vibrio cholerae; conditions: for Minimum Inhibitory Concentration: V. cholerae 6239
[10] = test system: Lactobacilli; assay: Effect on probiotic bacteria below the MIC; type: cell-based; conditions: berberine at 5 µg/ml
From the text: as §1

[11] = test system: Strep. Group B MCR1 27; assay: Antimicrobial activity, Minimum Inhibitory Concentration; type: cell-based, Streptococcus Group B; conditions: for Minimum Inhibitory Concentration: Strep. Group B MCR1 27
[12] = test system: E. coli HS; assay: as above; type: cell-based, Escherichia Coli
[13] = across the intestinal tissue; reference [13]; cited from earlier work
[14] = test system: L. plantarum; assay: Antimicrobial activity, Minimum Inhibitory Concentration; type: cell-based, Lactobacillus plantarum; conditions: for Minimum Inhibitory Concentration: L. plantarum
[15] = test system: IL-8; assay: Inhibition of IL-8 production

CC1(C)S[C@@H]2[C@H](NC(=O)[C@H](N)c3ccc(O)cc3)C(=O)N2[C@H]1C(=O)O [Amoxicillin, amoxicillin]
health of piglets after weaning [1]: all healthy
need of injectable amoxicillin for sick piglets [1]: no injectable amoxicillin was needed

COc1ccc2cc3[n+](cc2c1OC)CCc1cc2c(cc1-3)OCO2.[Cl-] [berberine chloride]
effect on filaments and attachment on the wall of intestine [2]: lost their filaments and were unable to attach on the wall of intestine
Minimum Inhibitory Concentration [3]: 62.5 µg/mL
inhibition of pathogenic bacteria (in words) ([3]; Candida albicans): selectively inhibits
inhibition of pathogenic bacteria (in words) ([4]; Staphylococcus aureus): selectively inhibits
Growth rate compared to that of the control on day 36 ([5]; Group A: 50 ppm berberine chloride in feed): 106.36% (p = 0.05)
Red Combs (Number of red comb/total number of chickens) ([5]; Group A: 50 ppm berberine chloride in feed, Day 14 (start of additive)): 0/5
Red Combs (Number of red comb/total number of chickens) ([5]; Group A: 50 ppm berberine chloride in feed, Day 17): 1/5
Red Combs (Number of red comb/total number of chickens) ([5]; Group A: 50 ppm berberine chloride in feed, Day 21): 1/5
Red Combs (Number of red comb/total number of chickens) ([5]; Group A: 50 ppm berberine chloride in feed, Day 24): 3/5
Red Combs (Number of red comb/total number of chickens) ([5]; Group A: 50 ppm berberine chloride in feed, Day 26): 3/5
Red Combs (Number of red comb/total number of chickens) ([5]; Group A: 50 ppm berberine chloride in feed, Day 32): 4/5
Red Combs (Number of red comb/total number of chickens) ([5]; Group A: 50 ppm berberine chloride in feed, Day 36): 4/5
Growth rate compared to that of the control on day 36 ([5]; Group B: 10 ppm berberine chloride in feed): 101.79%
Red Combs (Number of red comb/total number of chickens) ([5]; Group B: 10 ppm berberine chloride in feed, Day 14 (start of additive)): 0/5
Red Combs (Number of red comb/total number of chickens) ([5]; Group B: 10 ppm berberine chloride in feed, Day 17): 0/5
Red Combs (Number of red comb/total number of chickens) ([5]; Group B: 10 ppm berberine chloride in feed, Day 21): 2/5
Red Combs (Number of red comb/total number of chickens) ([5]; Group B: 10 ppm berberine chloride in feed, Day 24): 2/5
Red Combs (Number of red comb/total number of chickens) ([5]; Group B: 10 ppm berberine chloride in feed, Day 26): 3/5
Red Combs (Number of red comb/total number of chickens) ([5]; Group B: 10 ppm berberine chloride in feed, Day 32): 4/5
Red Combs (Number of red comb/total number of chickens) ([5]; Group B: 10 ppm berberine chloride in feed, Day 36): 5/5
residue found in the meat of chickens ([5]; after feeding as feed additive): no residue
inhibition of pathogenic bacteria (in words) [6]: selectively inhibits
Survival rate after 56 days treatment [7]: 5/10
induction of interleukine-12 (IL-12) [8]: could induce
Minimum Inhibitory Concentration [9]: 125 µg/mL
inhibition of pathogenic bacteria (in words) ([9]; Vibrio cholerae): selectively inhibits
effect on probiotic bacteria [10]: did not affect
Minimum Inhibitory Concentration [11]: 62.5 µg/mL
inhibition of pathogenic bacteria (in words) ([11]; Streptococcus Group B): selectively inhibits
Minimum Inhibitory Concentration [12]: >500 µg/mL
apparent permeability coefficient (Papp) [13]: ~10^−7 cm/s
Minimum Inhibitory Concentration [14]: 500 µg/mL
inhibition of beneficial bacteria (probiotics) (in words) ([14]; Lactobacillus plantarum, at <500 µg/ml): does not inhibit
inhibition of the production of IL-8 [15]: inhibit the production of IL-8

CC[C@H]1OC(=O)[C@H](C)[C@@H](O[C@H]2C[C@@](C)(OC)[C@@H](O)[C@H](C)O2)[C@H](C)[C@@H](O[C@@H]2O[C@H](C)C[C@H](N(C)C)[C@H]2O)[C@](C)(O)C[C@@H](C)C(=O)[C@H](C)[C@@H](O)[C@]1(C)O [Erythromycin, reference compound]
Minimum Inhibitory Concentration [3]: >10 µg/mL
Minimum Inhibitory Concentration ([4]; Staph. Aureus ATCC 29213): <0.625 µg/mL
Minimum Inhibitory Concentration [9]: >10 µg/mL
Minimum Inhibitory Concentration [11]: <0.625 µg/mL
Minimum Inhibitory Concentration [12]: >10 µg/mL
Minimum Inhibitory Concentration [14]: <0.625 µg/mL
